Tests used:
[1] = molecular target: T1, Tyrosine-protein kinase BTK (Homo sapiens, UniProt Q06187); experiment: Inhibition of BTK in human Ramos cells after 20 mins by fluorescence assay; format: cell-based
[2] = molecular target: T1, Tyrosine-protein kinase BTK; experiment: Inhibition of BTK (unknown origin) after 1 hr by TR-FRET analysis

T1 sequence (Q06187 whole entry): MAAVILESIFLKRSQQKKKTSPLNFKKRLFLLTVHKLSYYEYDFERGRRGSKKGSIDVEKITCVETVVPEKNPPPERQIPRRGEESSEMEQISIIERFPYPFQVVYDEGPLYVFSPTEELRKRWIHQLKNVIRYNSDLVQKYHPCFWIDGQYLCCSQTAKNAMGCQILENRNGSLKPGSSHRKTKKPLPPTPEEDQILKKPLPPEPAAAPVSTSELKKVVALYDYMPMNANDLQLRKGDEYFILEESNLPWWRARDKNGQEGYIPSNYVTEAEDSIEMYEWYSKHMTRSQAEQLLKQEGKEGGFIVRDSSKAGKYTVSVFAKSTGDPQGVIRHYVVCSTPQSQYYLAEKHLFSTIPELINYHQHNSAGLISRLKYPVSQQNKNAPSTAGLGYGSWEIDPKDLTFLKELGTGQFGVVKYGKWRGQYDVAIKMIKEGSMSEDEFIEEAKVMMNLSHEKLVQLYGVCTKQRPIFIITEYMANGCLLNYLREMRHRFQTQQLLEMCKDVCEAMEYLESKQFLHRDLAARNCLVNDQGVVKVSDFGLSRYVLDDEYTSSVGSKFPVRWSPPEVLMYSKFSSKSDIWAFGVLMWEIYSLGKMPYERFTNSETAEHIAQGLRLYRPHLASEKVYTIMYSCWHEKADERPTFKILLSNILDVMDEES

Compound	IC50 [1]	IC50 [2]
O=c1c2c(F)cc(C3CC3)cc2ccn1-c1cccc(-c2ncnc3[nH]ccc23)c1CO	> 5000 nM	1570 nM
O=c1c2c(F)cc(C3CC3)cc2ccn1-c1cccc(-c2ncnc3[nH]c(-c4ccccc4)cc23)c1CO	79 nM	90.3 nM
O=c1c2c(F)cc(C3CC3)cc2ccn1-c1cccc(-c2ncnc3[nH]c(-c4ccc(O)cc4)cc23)c1CO	211 nM	73.9 nM
COc1ccc(-c2cc3c(-c4cccc(-n5ccc6cc(C7CC7)cc(F)c6c5=O)c4CO)ncnc3[nH]2)cc1	38.8 nM	58.3 nM
Nc1cccc(-c2cc3c(-c4cccc(-n5ccc6cc(C7CC7)cc(F)c6c5=O)c4CO)ncnc3[nH]2)c1	65 nM	136 nM
CC(=O)c1ccc(-c2cc3c(-c4cccc(-n5ccc6cc(C7CC7)cc(F)c6c5=O)c4CO)ncnc3[nH]2)cc1	49 nM	41.7 nM
CN(C)C(=O)c1ccc(-c2cc3c(-c4cccc(-n5ccc6cc(C7CC7)cc(F)c6c5=O)c4CO)ncnc3[nH]2)cc1	15 nM	17.8 nM
O=C(c1ccc(-c2cc3c(-c4cccc(-n5ccc6cc(C7CC7)cc(F)c6c5=O)c4CO)ncnc3[nH]2)cc1)N1CCOCC1	10 nM	18.2 nM
O=C(c1ccc(-c2cc3c(-c4cccc(-n5ccc6cc(C7CC7)cc(F)c6c5=O)c4CO)ncnc3[nH]2)cc1)N1CCCCC1	65 nM	50.8 nM
CN(C)Cc1ccc(-c2cc3c(-c4cccc(-n5ccc6cc(C7CC7)cc(F)c6c5=O)c4CO)ncnc3[nH]2)cc1	33 nM	31.6 nM
O=c1c2c(F)cc(C3CC3)cc2ccn1-c1cccc(-c2ncnc3[nH]c(-c4ccc(CN5CCOCC5)cc4)cc23)c1CO	12 nM	63.6 nM
CN(C)C(=O)c1cccc(-c2cc3c(-c4cccc(-n5ccc6cc(C7CC7)cc(F)c6c5=O)c4CO)ncnc3[nH]2)c1	87.3 nM	69 nM
CC(=O)c1cc(-c2cc3c(-c4cccc(-n5ccc6cc(C7CC7)cc(F)c6c5=O)c4CO)ncnc3[nH]2)cs1	58 nM	119 nM
O=c1c2c(F)cc(C3CC3)cc2ccn1-c1cccc(-c2ncnc3[nH]c(-c4cc[nH]n4)cc23)c1CO	47 nM	38.8 nM
COc1ccc(-c2cc3c(-c4cccc(-n5ccc6cc(C7CC7)cc(F)c6c5=O)c4CO)ncnc3[nH]2)cn1	74 nM	197 nM
CN(C)C(=O)c1cc2c(-c3cccc(-n4ccc5cc(C6CC6)cc(F)c5c4=O)c3CO)ncnc2[nH]1	1560 nM	1360 nM
CN(C)C(=O)N1CCC(c2cc3c(-c4cccc(-n5ccc6cc(C7CC7)cc(F)c6c5=O)c4CO)ncnc3[nH]2)CC1	1650 nM	574 nM
CN(C)C(=O)N1CC=C(c2cc3c(-c4cccc(-n5ccc6cc(C7CC7)cc(F)c6c5=O)c4CO)ncnc3n2C)CC1	> 5000 nM	> 5000 nM

Further lines, results first:

IC50 [1]	IC50 [2]	Compound
7.9 nM	15.8 nM	CS(=O)(=O)N1CC=C(c2cc3c(-c4cccc(-n5ccc6cc(C7CC7)cc(F)c6c5=O)c4CO)ncnc3[nH]2)CC1
38 nM	21.3 nM	Cn1ccc(-c2cc3c(-c4cccc(-n5ccc6cc(C7CC7)cc(F)c6c5=O)c4CO)ncnc3[nH]2)n1
350 nM	77.8 nM	O=c1c2c(F)cc(C3CC3)cc2ccn1-c1cccc(-c2ncnc3[nH]c(C4=CCCCC4)cc23)c1CO
46 nM	67.1 nM	O=c1c2c(F)cc(C3CC3)cc2ccn1-c1cccc(-c2ncnc3[nH]c(C4=CCSCC4)cc23)c1CO
96.5 nM	32.5 nM	O=c1c2c(F)cc(C3CC3)cc2ccn1-c1cccc(-c2ncnc3[nH]c(C4=CCNCC4)cc23)c1CO
125 nM	57.1 nM	CN1CC=C(c2cc3c(-c4cccc(-n5ccc6cc(C7CC7)cc(F)c6c5=O)c4CO)ncnc3[nH]2)CC1
21.4 nM	15.3 nM	CC(=O)N1CC=C(c2cc3c(-c4cccc(-n5ccc6cc(C7CC7)cc(F)c6c5=O)c4CO)ncnc3[nH]2)CC1
21.6 nM	7 nM	CN(C)C(=O)N1CC=C(c2cc3c(-c4cccc(-n5ccc6cc(C7CC7)cc(F)c6c5=O)c4CO)ncnc3[nH]2)CC1
17 nM	4.8 nM	O=C(N1CC=C(c2cc3c(-c4cccc(-n5ccc6cc(C7CC7)cc(F)c6c5=O)c4CO)ncnc3[nH]2)CC1)N1CCOCC1
51.3 nM	25.2 nM	CNC(=O)N1CC=C(c2cc3c(-c4cccc(-n5ccc6cc(C7CC7)cc(F)c6c5=O)c4CO)ncnc3[nH]2)CC1
26 nM	16.5 nM	CN(C)S(=O)(=O)N1CC=C(c2cc3c(-c4cccc(-n5ccc6cc(C7CC7)cc(F)c6c5=O)c4CO)ncnc3[nH]2)CC1
11 nM	24.8 nM	O=c1c2c(F)cc(C3CC3)cc2ccn1-c1cccc(-c2ncnc3[nH]c(C4=CCN(C5COC5)CC4)cc23)c1CO
69.7 nM	45.3 nM	O=c1c2c(F)cc(C3CC3)cc2ccn1-c1cccc(-c2ncnc3[nH]c(C4=CCN(c5ncccn5)CC4)cc23)c1CO

Source: ChEMBL document CHEMBL3399979, “Discovery of novel Bruton's tyrosine kinase (BTK) inhibitors bearing a pyrrolo[2,3-d]pyrimidine scaffold” (Bioorg Med Chem, 2015)
